Assay results: ChEMBL document CHEMBL1155351, “Synthesis and evaluation of novel tricyclic benzo[4.5]cyclohepta[1.2]pyridine derivatives as NMDA/NR2B antagonists” (Bioorg Med Chem Lett, 2009)

Experiments:
[1] = target: Voltage-gated inwardly rectifying potassium channel KCNH2 (Homo sapiens, UniProt Q12809); assay: Displacement of [35S]MK499 from human ERG expressed in HEK293 cells; format: cell-based; details: for IC50: read-out: IP
[2] = Displacement of [3H](E)-N1-(2-methoxybenzyl)-cinnamamidine from human recombinant N-methyl-D-aspartate receptor subunit NR1a/N-methyl D-aspartate receptor subtype 2B expressed in mouse Ltk cells by radioligand binding assay
[3] = target: Glutamate receptor ionotropic, NMDA 2B (Homo sapiens, UniProt Q13224); assay: Antagonistic activity against NR2B receptor expressed in mouse Ltk cells assessed as inhibition of calcium influx by FLIPR assay; format: functional, cell-based
Sequence of Glutamate receptor ionotropic, NMDA 2B (Q13224 whole entry): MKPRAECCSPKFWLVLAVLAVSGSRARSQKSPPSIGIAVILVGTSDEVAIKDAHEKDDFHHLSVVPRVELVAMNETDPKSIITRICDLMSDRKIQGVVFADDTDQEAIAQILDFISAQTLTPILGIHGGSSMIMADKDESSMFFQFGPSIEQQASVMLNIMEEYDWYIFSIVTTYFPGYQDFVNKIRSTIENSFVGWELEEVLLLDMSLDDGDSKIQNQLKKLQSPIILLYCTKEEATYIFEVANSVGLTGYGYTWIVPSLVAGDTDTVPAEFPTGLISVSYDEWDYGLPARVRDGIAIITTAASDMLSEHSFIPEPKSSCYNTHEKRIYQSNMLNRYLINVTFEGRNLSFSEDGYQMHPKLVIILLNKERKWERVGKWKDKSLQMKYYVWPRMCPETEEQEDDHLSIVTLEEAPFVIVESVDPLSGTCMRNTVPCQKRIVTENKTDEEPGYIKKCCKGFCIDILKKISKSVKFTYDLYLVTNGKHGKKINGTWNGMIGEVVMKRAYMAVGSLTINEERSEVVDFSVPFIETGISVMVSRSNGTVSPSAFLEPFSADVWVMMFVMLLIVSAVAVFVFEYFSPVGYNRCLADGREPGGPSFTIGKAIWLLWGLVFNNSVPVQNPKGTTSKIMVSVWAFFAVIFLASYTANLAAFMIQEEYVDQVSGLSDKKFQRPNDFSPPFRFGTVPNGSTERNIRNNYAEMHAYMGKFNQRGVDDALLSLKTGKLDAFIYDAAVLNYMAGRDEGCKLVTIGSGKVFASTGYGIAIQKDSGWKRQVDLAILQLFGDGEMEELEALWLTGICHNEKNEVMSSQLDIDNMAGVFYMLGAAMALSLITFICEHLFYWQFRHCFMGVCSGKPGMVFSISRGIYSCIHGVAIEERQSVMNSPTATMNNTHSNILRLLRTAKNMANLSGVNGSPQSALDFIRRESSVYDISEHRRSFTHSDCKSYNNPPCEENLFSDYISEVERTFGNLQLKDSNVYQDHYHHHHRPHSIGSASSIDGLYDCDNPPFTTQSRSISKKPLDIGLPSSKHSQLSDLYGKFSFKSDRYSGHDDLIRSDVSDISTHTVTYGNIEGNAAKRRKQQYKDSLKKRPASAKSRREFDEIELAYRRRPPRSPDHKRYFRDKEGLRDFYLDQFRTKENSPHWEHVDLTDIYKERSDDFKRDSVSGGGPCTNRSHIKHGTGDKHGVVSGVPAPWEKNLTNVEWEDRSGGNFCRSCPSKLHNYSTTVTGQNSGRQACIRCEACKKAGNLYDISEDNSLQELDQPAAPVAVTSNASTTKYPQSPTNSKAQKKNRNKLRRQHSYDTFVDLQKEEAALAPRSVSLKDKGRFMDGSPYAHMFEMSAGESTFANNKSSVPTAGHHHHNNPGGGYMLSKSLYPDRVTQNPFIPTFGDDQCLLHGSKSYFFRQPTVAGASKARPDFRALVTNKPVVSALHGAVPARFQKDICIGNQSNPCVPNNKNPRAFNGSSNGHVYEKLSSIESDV

[4] = Binding affinity to alpha1 adrenergic receptor
Homo sapiens = organism: Homo sapiens; assay: Selectivity ratio of Ki for human NR2B to IP for human ERG

Sequence of Voltage-gated inwardly rectifying potassium channel KCNH2 (Q12809 whole entry): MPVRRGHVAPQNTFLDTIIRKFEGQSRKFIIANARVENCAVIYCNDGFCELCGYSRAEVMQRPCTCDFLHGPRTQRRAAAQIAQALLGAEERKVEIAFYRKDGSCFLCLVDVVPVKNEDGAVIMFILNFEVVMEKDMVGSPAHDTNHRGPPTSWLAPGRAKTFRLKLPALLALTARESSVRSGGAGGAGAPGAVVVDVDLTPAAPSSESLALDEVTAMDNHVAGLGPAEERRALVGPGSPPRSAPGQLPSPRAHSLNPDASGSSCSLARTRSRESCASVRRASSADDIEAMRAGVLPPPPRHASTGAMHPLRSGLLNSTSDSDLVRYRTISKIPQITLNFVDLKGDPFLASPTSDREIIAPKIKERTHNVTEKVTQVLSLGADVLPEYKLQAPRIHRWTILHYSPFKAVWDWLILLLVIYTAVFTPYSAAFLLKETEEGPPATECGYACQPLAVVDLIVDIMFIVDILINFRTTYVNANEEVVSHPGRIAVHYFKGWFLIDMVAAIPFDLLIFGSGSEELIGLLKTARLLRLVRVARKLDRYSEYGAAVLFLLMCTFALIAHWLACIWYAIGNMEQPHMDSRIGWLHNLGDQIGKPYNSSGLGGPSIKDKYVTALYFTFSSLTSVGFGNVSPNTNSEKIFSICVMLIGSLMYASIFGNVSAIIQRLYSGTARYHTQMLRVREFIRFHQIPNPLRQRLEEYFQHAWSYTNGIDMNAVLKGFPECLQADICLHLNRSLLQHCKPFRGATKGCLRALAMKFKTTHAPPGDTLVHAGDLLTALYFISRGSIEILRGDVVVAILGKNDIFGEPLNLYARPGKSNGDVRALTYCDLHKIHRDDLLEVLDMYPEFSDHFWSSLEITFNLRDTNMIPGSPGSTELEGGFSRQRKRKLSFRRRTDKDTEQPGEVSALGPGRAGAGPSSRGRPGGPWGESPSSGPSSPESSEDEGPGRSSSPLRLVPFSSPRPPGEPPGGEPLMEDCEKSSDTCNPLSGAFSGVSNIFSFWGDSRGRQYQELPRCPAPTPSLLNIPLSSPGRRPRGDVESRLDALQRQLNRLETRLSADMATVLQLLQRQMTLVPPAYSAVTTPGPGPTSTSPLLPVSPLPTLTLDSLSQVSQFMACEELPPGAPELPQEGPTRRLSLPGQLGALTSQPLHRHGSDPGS

N#Cc1cccc2c1C=Cc1ncc(N3CCCCCC3)cc1C2O (centres undefined) showed an IC50 [1] of 3000 nM and a Ki [2] of 428 nM.
N#Cc1cccc2c1C=Cc1ncc(-c3ccccc3)cc1C2O (single isomer, unassigned; (-)) gave an IC50 [1] of 590 nM, a Ki [2] of 1 nM and an IC50 [3] of 9 nM. The Ki [4] was 5000 nM.
With CN1CCN(c2cnc3c(c2)C(O)c2cccc(C#N)c2C=C3)CC1 (centres undefined) the IC50 [1] was 42000 nM and the Ki [2] was greater than 16000 nM.
Molecule Cc1ccccc1-c1cnc2c(c1)C(O)c1cccc(C#N)c1C=C2 (centres undefined) has an IC50 [1] of 1350 nM and a Ki [2] of 6 nM.
CC(=O)OC1c2cc(-c3ccccc3)cnc2C=Cc2c(C#N)cccc21 (centres undefined) gave an IC50 [1] of 653 nM and a Ki [2] of 10 nM.
COC1c2cc(-c3ccccc3)cnc2C=Cc2c(C#N)cccc21 (centres undefined) gave an IC50 [1] of 660 nM and a Ki [2] of 4800 nM.
Molecule N#Cc1cccc2c1CCc1ncc(-c3ccccc3)cc1C2 has an IC50 [1] of 154 nM and a Ki [2] of 77 nM.
N#Cc1cccc2c1C=Cc1ncc(-c3ccccc3)cc1C2 showed an IC50 [1] of 65 nM and a Ki [2] of 2 nM.
Molecule N#Cc1cccc2c1CCc1ncc(-c3ccccc3)cc1C2O (centres undefined) has an IC50 [1] of 3560 nM and a Ki [2] of 56 nM.
With N#Cc1cccc2c1C=Cc1ncc(-c3ccc(F)cc3)cc1C2O (centres undefined) the IC50 [1] was 512 nM and the Ki [2] was 3 nM.
COc1ccccc1-c1cnc2c(c1)C(O)c1cccc(C#N)c1C=C2 (centres undefined) gave an IC50 [1] of 5450 nM and a Ki [2] of 13 nM.
Work on COc1cccc(-c2cnc3c(c2)C(O)c2cccc(C#N)c2C=C3)c1 (centres undefined) yielded an IC50 [1] of 1530 nM and a Ki [2] of 9 nM.
N#Cc1cccc2c1C=Cc1ncc(-c3cccc(F)c3)cc1C2O (centres undefined) showed an IC50 [1] of 4970 nM and a Ki [2] of 23 nM.
Molecule N#Cc1cccc2c1C=Cc1ncc(N3CCOCC3)cc1C2O (centres undefined) has an IC50 [1] of 20000 nM and a Ki [2] of 196 nM.
In the case of N#Cc1cccc2c(=O)c3cc(-c4ccccc4)cnc3ccc12, the IC50 [1] is reported as 882 nM and the Ki [2] is reported as 1000 nM.
For N#Cc1cccc2c1C=Cc1ncc(-c3ccccc3)cc1C2O (single isomer, unassigned; (+)), the IC50 [1] was 10000 nM and the Ki [2] was 540 nM.
N#Cc1cccc2c1C=Cc1ncc(N3CCCC3)cc1C2O (centres undefined) showed an IC50 [1] of 15500 nM and a Ki [2] of 720 nM.
For N#Cc1cccc2c1C=Cc1ncc(-c3ccccc3)cc1C2O (racemic), the IC50 [1] was 5100 nM and the Ki [2] was 2 nM.
N#Cc1cccc2c1C=Cc1ncc(N3CCCCC3)cc1C2O (racemic) showed an IC50 [1] of 10000 nM and a Ki [2] of 43 nM.
With N#Cc1cccc2c1C=Cc1ncc(N3CCCCC3)cc1C2O (single isomer, unassigned; (+)) the IC50 [1] was 20000 nM and the Ki [2] was 35000 nM.
N#Cc1cccc2c1C(=O)Nc1ncc(-c3ccccc3)cc1C2 showed a Ki [1] of 431 nM and a Ki [2] of 19 nM.
For Cc1cccc(-c2cnc3c(c2)C(O)c2cccc(C#N)c2C=C3)c1 (centres undefined), the IC50 [1] was 1100 nM and the Ki [2] was 4 nM.
Molecule CC1CCN(c2cnc3c(c2)C(O)c2cccc(C#N)c2C=C3)CC1 (centres undefined) has an IC50 [1] of 5300 nM and a Ki [2] of 83 nM.
N#Cc1cccc2c1C=Cc1ncc(-c3ccccc3F)cc1C2O (centres undefined) showed an IC50 [1] of 4440 nM and a Ki [2] of 16 nM.
Work on COc1ccc(-c2cnc3c(c2)C(O)c2cccc(C#N)c2C=C3)cc1 (centres undefined) yielded an IC50 [1] of 1610 nM and a Ki [2] of 8 nM.
Work on Cc1ccc(-c2cnc3c(c2)C(O)c2cccc(C#N)c2C=C3)cc1 (centres undefined) yielded an IC50 [1] of 1700 nM and a Ki [2] of 10 nM.
With N#Cc1cccc2c1C=Cc1ncc(N3CCCCC3)cc1C2O (single isomer, unassigned; (-)) [listing 1 of 2 here] the IC50 [1] was 20000 nM, the Ki [2] was 17 nM and the IC50 [3] was 27 nM. It also gave a Ki [4] greater than 21000 nM.
For N#Cc1cccc2c1C=Cc1ncc(N3CCCCC3)cc1C2O (single isomer, unassigned; (-)) [listing 2 of 2 here], the Ratio (Homo sapiens) was 1000.
